Converted amounts (≈) assume the structure as drawn. Structures can show the parent of a compound that is named as a salt. Where two headings read alike, the source gives them in different places.
Assays:
E. coli biofilm = E. coli biofilm assay (activity tables); type: cell-based, Escherichia coli; conditions: read-out: MIC (μM) E. coli Biofilm
Description: A quantitative biofilm assay was used to determine the effect of NTZ on biofilm formation (41). Strain 042 was grown overnight at 37° C. with shaking and inoculated 1:100 in 200 μl culture medium in Costar 96-well, flat-bottom, polystyrene microtiter plates containing appropriate concentrations of NTZ. Plates were incubated statically at 37° C. in a humidified incubator. At 24 h, bacterial growth was measured by either transferring […] aliquots to another microtiter plate to determine turbidity or by diluting 100 μl aliquots 1:100 in 9.9 ml PBS for quantitative plate counts on LB medium. Bacterial counts in triplicate are reported as cfu/ml. Biofilm was visualized following staining with 0.5% crystal violet (41) and the absorbance was read at 570 nm using a microplate reader (Molecular Dynamics). All experiments were in triplicate and reported as mean and standard deviation.
(§1) A standard broth dilution protocol was used in 96 well microplates containing a standard dilution of the microorganism to be tested in 100 microliters of the appropriate medium. Appropriate medium: E. coli, LB medium; Staphylococcus strains, Trypticase Soy; and for H. pylori and C. jejuni, Brain Heart Infusion. The compounds to be tested were set at 32 μg/ml in 200 microliters in well one and then serially diluted to provide a range from 32 to 0.06. The wells were scored visually at 24 h. The well where there was no growth was recorded as the MIC. Clostridium difficile was tested by agar diffusion and disk diffusion (Kirby Bower) methods under anaerobic conditions on Wilkins Chalgrin agar. In these assays, zone of inhibited growth was measured and compared by relative ratio to the zone recorded for NTZ.
(§2) Representative compounds of the invention were tested in a series of assays against a series of organisms as described above. […] The organisms tested include, C. difficile, H. pylori, C. jejuni, MRSA, S. epidermidis, and E. coli. S. epidermidis and E. coli were tested in the plank and biofilm assay. A disk diffusion assay was also used for C. difficile. Direct PFOR enzyme assays were also performed. All analogues and derivatives were not tested on every organism in every type of assay (the “-” in each table means that it was not tested).

C. jejuni = assay: MIC testing by broth dilution, C. jejuni; type: cell-based, Campylobacter jejuni; conditions: 24 h, read-out: MIC (μM) C. jejuni
Description: as §1, §2

S. epidermidis biofilm = S. epidermidis biofilm assay (activity tables); type: cell-based, Staphylococcus epidermidis
Description: Staphylococcal strains were cultured overnight in TSB at 37° C. with shaking, diluted in fresh medium to an OD600 of 0.01 and 200 W was dispensed into sterile flat bottom polystyrene 96 well microtiter plates (Costar 3596, Corning Inc.). […] Each compound and dilution was tested in triplicate. The plates were incubated overnight at 37° C. in a humidified incubator, without shaking and both growth and biofilm accumulation were determined at 16 h.
Following recording of turbidities, the culture medium was aspirated and the wells were washed three times with distilled water, blotted on paper towels, and fixed with 75% ethanol for 10 minutes.
To visualize biofilm material, 0.5% crystal violet was added to each well and after 5 minutes was removed and the wells washed three times with distilled water. Plates were read using a microplate reader at a wavelength of 570 nm. The dye was then extracted by adding 200 W of 95% ethanol, and the absorbance was read again at 570 nm. All assays were performed in triplicate and the mean and standard deviation determined. […]
as §2

H. pylori = assay: MIC testing by broth dilution, H. pylori; type: cell-based, Helicobacter pylori; conditions: 24 h, read-out: MIC (μM) H. pylori
Description: as §1, §2

MRSA = assay: MIC testing by broth dilution, MRSA; type: cell-based, Staphylococcus aureus; conditions: 24 h, read-out: MIC (μM) MRSA
Description: as §1, §2

E. coli = assay: MIC testing by broth dilution, E. coli plank; type: cell-based, Escherichia coli; conditions: 24 h, read-out: MIC (μM) E. coli Plank
Description: as §1, §2

S. epidermidis = assay: MIC testing by broth dilution, S. epidermidis plank; type: cell-based, Staphylococcus epidermidis; conditions: 24 h, read-out: MIC (μM) S. epidermidis Plank
Description: as §1, §2

C. difficile = assay: Disk diffusion (Kirby Bower), C. difficile; type: cell-based, Clostridium difficile; conditions: zone of inhibited growth as relative ratio to the zone for NTZ
Description: as §1, §2

[1] = broth dilution, Brain Heart Infusion

Row | Structure (SMILES) | MIC (E. coli biofilm; biofilm) [µM] | MIC (C. jejuni; [1]) [µM] | MIC (μM) S. epidermidis Biofilm (S. epidermidis biofilm) [µM] | MIC (H. pylori; [1]) [µM] | MIC (MRSA; broth dilution, Trypticase Soy) [µM] | MIC (E. coli; broth dilution, LB medium) [µM] | MIC (S. epidermidis; broth dilution, Trypticase Soy) [µM] | Disk Diffusion (%) C. difficile (C. difficile) [%] | MIC (E. coli biofilm; Escherichia coli) [µM] | MIC (C. jejuni; Campylobacter jejuni) [µM] | MIC (H. pylori; Helicobacter pylori) [µM] | MIC (MRSA; Staphylococcus aureus, MRSA) [µM] | MIC (E. coli; Escherichia coli) [µM] | MIC (S. epidermidis; Staphylococcus epidermidis) [µM]
1 | CC1=C(C(=O)Nc2ncc([N+](=O)[O-])s2)Cc2ccccc21 [VPC16a1018] | 53.1 (≈ 16 µg/mL) | 10.7 (≈ 3.22 µg/mL) | 26.5 (≈ 7.99 µg/mL) | 0.7 (≈ 0.211 µg/mL) | 106.2 (≈ 32 µg/mL) | 106.2 (≈ 32 µg/mL) | 106.2 (≈ 32 µg/mL) | – | – | – | – | – | – | –
2 | O=C(CCCc1ccccc1)Nc1ncc([N+](=O)[O-])s1 [VPC16a1020] | 54.9 (≈ 16 µg/mL) | 2.6 (≈ 0.757 µg/mL) | – | 13.8 (≈ 4.02 µg/mL) | 109.8 (≈ 32 µg/mL) | 109.8 (≈ 32 µg/mL) | 109.8 (≈ 32 µg/mL) | 33 ± 3 | – | – | – | – | – | –
3 | Cl.N[C@H](C(=O)Nc1ncc([N+](=O)[O-])s1)c1ccccc1 [VPC16a1027] | 25.4 | 38.1 | 101.7 | 76.3 | 101.7 | 101.7 | 101.7 | – | – | – | – | – | – | –
4 | N[C@@H](Cc1ccccc1)C(=O)Nc1ncc([N+](=O)[O-])s1 [VPC16a1028, (S)-2-Amino-N-(5-nitrothiazol-2-yl)-3-phenylpropanamide hydrochloride] | – | – | 97.3 | – | – | – | – | – | 48.7 | 36.5 | 18.3 | 97.3 | 97.3 | 97.3
5 | NCCCC[C@H](N)C(=O)Nc1ncc([N+](=O)[O-])s1 [VPC16a1032] | 0.1 (≈ 0.0273 µg/mL) | 92.4 (≈ 25.3 µg/mL) | 92.4 (≈ 25.3 µg/mL) | 69.3 (≈ 18.9 µg/mL) | 92.4 (≈ 25.3 µg/mL) | 92.4 (≈ 25.3 µg/mL) | 92.4 (≈ 25.3 µg/mL) | – | – | – | – | – | – | –
6 | CC(=O)Nc1ncc([N+](=O)[O-])s1 [VPC16a1033] | 42.7 (≈ 7.99 µg/mL) | 14.0 (≈ 2.62 µg/mL) | 21.4 (≈ 4.01 µg/mL) | 3.5 (≈ 0.655 µg/mL) | 171.0 (≈ 32 µg/mL) | 42.7 (≈ 7.99 µg/mL) | 21.4 (≈ 4.01 µg/mL) | – | – | – | – | – | – | –
7 | O=C(CCc1ccccc1)Nc1ncc([N+](=O)[O-])s1 [VPC16b1030] | 50.5 (≈ 14 µg/mL) | 1.30 (≈ 0.36 µg/mL) | – | 0.3 (≈ 0.0832 µg/mL) | 115.4 (≈ 32 µg/mL) | 115.4 (≈ 32 µg/mL) | 14.4 (≈ 3.99 µg/mL) | 54.5 ± 0.5 | – | – | – | – | – | –
8 | CCCCCCCCCC(=O)Nc1ncc([N+](=O)[O-])s1 [VPC16b1043] | 106.9 (≈ 32 µg/mL) | 3.9 (≈ 1.17 µg/mL) | 1.7 (≈ 0.509 µg/mL) | 1.2 (≈ 0.359 µg/mL) | 106.9 (≈ 32 µg/mL) | 106.9 (≈ 32 µg/mL) | 106.9 (≈ 32 µg/mL) | – | – | – | – | – | – | –
9 | CCCC(=O)Nc1ncc([N+](=O)[O-])s1 [VPC16b1045] | 148.7 (≈ 32 µg/mL) | 2.1 (≈ 0.452 µg/mL) | 4.6 (≈ 0.99 µg/mL) | 0.5 (≈ 0.108 µg/mL) | 148.7 (≈ 32 µg/mL) | 148.7 (≈ 32 µg/mL) | 37.2 (≈ 8.01 µg/mL) | – | – | – | – | – | – | –
10 | CC(C)(C(=O)Nc1ncc([N+](=O)[O-])s1)C(=O)Nc1ncc([N+](=O)[O-])s1 [VPC16b1048] | 82.8 (≈ 32 µg/mL) | 82.8 (≈ 32 µg/mL) | 41.4 (≈ 16 µg/mL) | 20.7 (≈ 8 µg/mL) | 82.8 (≈ 32 µg/mL) | 82.8 (≈ 32 µg/mL) | 82.8 (≈ 32 µg/mL) | – | – | – | – | – | – | –
11 | CC(=O)Oc1cc(C#N)ccc1C(=O)Nc1ncc([N+](=O)[O-])s1 [VPC161076] | 96.3 (≈ 32 µg/mL) | 96.3 (≈ 32 µg/mL) | 48.2 (≈ 16 µg/mL) | 24.1 (≈ 8.01 µg/mL) | 96.3 (≈ 32 µg/mL) | 96.3 (≈ 32 µg/mL) | 96.3 (≈ 32 µg/mL) | – | – | – | – | – | – | –

From US8835644B2, “Broad spectrum benzothiophene-nitrothiazolide and other antimicrobials” (University of Virginia Patent Foundation, priority 2009, dated 2014)
